One block for each molecule: values may come before it.
Tests used:
human recombinant GCPII = human recombinant GCPII (Homo sapiens, UniProt Q04609); assay: GCPII activity assay (radioactivity-based, NAA-[3H]-G); assay type: biochemical; conditions: for IC50: human recombinant GCPII
Method: Inhibition potencies against GCPII (IC50 values) were determined using previously described methods with minor modifications. Briefly, reactions were carried out in the presence of NAA-[^3H]-G and human recombinant GCPII enzyme in Tris-HCl and CoCl2 at 37 °C for 20 min. Reactions were stopped with ice-cold sodium phosphate buffer containing 1 mM EDTA. Aliquots were then transferred to 96-well spin columns containing AG1X8 ion-exchange resin and centrifuged. NAA-[^3H]-G was bound to the resin and [^3H]-G eluted in the flow-through. Columns were washed with formate to ensure complete elution of [^3H]-G. The flow-through and the washes were collected, and aliquots were transferred and dried to completion in a solid scintillator-coated 96-well plate. The radioactivity corresponding to [^3H]-G was determined with a scintillation counter. Subsequently, IC50 curves were generated from CPM results.
The inhibitory potencies of the catechols were determined using a modified radioactivity-based assay involving human recombinant GCPII enzyme as previously reported. Based on literature reports of catecholic moieties binding to zinc metalloproteases, we tested the potency of L-DOPA (1) against GCPII activity and discovered that it is a submicromolar inhibitor. […] This prompted us to evaluate analogs of L-DOPA (Table 1) to determine the essential structural features responsible for its GCPII inhibitory activity. […] Subsequently, we tested L-DOPA analogs retaining the catechol moiety (compounds 5–10). […] Taken together, these structure–activity relationship (SAR) studies highlight the critical role played by the catechol and carboxylate groups of L-DOPA in GPCII inhibition as well as the insignificant contribution of the alpha amino group.

[1] = Metabolic stability in mouse plasma; assay type: in vitro ADME; conditions: 37 °C, 60 min
Method: (§1) Briefly, brain homogenates were prepared by adding 9X of 0.1 M potassium phosphate buffer to weighed tissue and homogenization using a probe sonicator. Plasma and crude brain homogenate (1 mL each) were spiked with the analyte to give a final concentration of 10 µM and then incubated at 37 °C for 1 h. At predetermined time points (0, 30, and 60 min), an aliquot from each matrix was quenched with 3X volume of acetonitrile containing the internal standard (IS; losartan: 0.5 μM) and vortex-mixed for 30 s. The final mixtures were centrifuged at 10,000× g for 10 min at 4 °C and supernatants were used for LC-MS analyses.
(§2) The samples were analyzed using a Dionex Ultimate 3000 ultra-high-performance LC system coupled with a Q Exactive Focus orbitrap mass spectrometer (Thermo Fisher Scientific Inc., Waltham MA, USA) operated with a heated electrospray ionization (HESI) ion source. […] The mass spectrometer was operated in switching ionization mode to collect both positive and negative molecular ions while being controlled by Xcalibur software 4.0.27.13 (Thermo Scientific). Analytes were quantified and the disappearance of the respective catechols was monitored in the full-scan mode (from m/z 50 to 1600) by comparing samples at the different time-points.

in vitro = in vitro ADME; conditions: mouse, brain homogenate
Method: as §1, §2

[2] = Metabolite identification (MET-ID) in spiked brain homogenate; assay type: in vitro ADME, mouse; conditions: 30 min post-spike
[3] = Initial two time-point pharmacokinetic study in mice; assay type: in vivo, mouse; conditions: 50 mg/kg PO; for brain levels: at both time points (30 and 60 min); for concentration at 30 min: 30 min post dose
Method: For in vivo PK studies, male CD-1 mice (Harlan Laboratories, Indianapolis, IN, USA) weighing 25-30 g were used. The mice were maintained on a 12 h light-dark cycle with ad libitum access to food and water. […] Brains were dissected and immediately flash frozen (-80 °C). […] Caffeic acid was analyzed underivatized. […] Plasma and brain tissue samples were processed by matching dilutions of the calibration standards. […] Then, 2 μL of the sample was analyzed using LC/MS/MS system. […] Plasma and brain tissue samples were processed by matching the dilutions of calibration standards of the respective tissues. […] The solutions were vortexed for 15 s and then allowed to sit at room temperature for 45 min. These mixtures were vortexed again for 10 s and centrifuged at 10,000× g for 10 min to collect the supernatant. Then, 2 μL of the sample was injected into the LC/MS/MS system for analysis. Chromatographic analysis was performed using a Thermo Scientific Vanquish UPLC system consisting of an analytical pump and an autosampler coupled with a […] spectrometer. […] The mobile phase was delivered as a gradient at a flow rate of 0.400 mL/min. […] The analyte was monitored using a ThermoScientific […] triple-quadrupole mass-spectrometric detector equipped with an electrospray interface, and operated in negative ion mode. The instrument was controlled by Thermo Scientific Xcalibur (version 4.2.47) software.

in vivo = conditions: male, CD-1, mouse
Method: All of the formulations were freshly prepared prior to the dosing. […] Brain and plasma collection were carried out as described above. […] Plasma and brain tissue samples were processed by matching the dilutions of calibration standards of the respective tissues. […] The solutions were vortexed for 15 s and then allowed to sit at room temperature for 45 min. These mixtures were vortexed again for 10 s and centrifuged at 10,000× g for 10 min to collect the supernatant. Then, 2 μL of the sample was injected into the LC/MS/MS system for analysis. Chromatographic analysis was performed using a Thermo Scientific Vanquish UPLC system consisting of an analytical pump and an autosampler coupled with a […] spectrometer. […] The mobile phase was delivered as a gradient at a flow rate of 0.400 mL/min. […] The analyte was monitored using a ThermoScientific […] triple-quadrupole mass-spectrometric detector equipped with an electrospray interface, and operated in negative ion mode. The instrument was controlled by Thermo Scientific Xcalibur (version 4.2.47) software.

GCPII = biological target: T1, GCPII (Mus musculus, UniProt O35409); assay: D-DOPA target engagement: ex vivo GCPII activity in mouse brain; conditions: for brain GCPII activity, effect in words: 30 min
T1 construct: from tissue
T1 sequence (O35409 whole entry): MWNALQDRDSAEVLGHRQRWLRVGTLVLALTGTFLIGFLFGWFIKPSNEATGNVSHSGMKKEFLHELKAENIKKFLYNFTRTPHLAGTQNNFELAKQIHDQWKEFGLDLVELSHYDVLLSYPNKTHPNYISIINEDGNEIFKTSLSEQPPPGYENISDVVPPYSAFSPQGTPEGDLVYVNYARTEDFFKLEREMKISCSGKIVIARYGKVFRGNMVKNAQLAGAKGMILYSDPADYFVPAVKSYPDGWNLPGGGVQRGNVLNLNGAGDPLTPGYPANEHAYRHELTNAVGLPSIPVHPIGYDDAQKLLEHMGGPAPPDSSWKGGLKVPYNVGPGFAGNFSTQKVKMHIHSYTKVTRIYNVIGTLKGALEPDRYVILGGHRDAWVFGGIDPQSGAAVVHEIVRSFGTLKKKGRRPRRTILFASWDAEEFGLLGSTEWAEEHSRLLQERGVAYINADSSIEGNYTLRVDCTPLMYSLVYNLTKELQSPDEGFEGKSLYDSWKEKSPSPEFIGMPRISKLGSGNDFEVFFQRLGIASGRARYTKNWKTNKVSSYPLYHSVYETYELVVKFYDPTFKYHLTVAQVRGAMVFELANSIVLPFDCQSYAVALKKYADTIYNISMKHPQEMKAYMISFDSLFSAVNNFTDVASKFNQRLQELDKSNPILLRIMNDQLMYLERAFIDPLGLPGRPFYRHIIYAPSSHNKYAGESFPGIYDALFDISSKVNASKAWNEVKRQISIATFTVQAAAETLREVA

[4] = male, CD-1, mouse, plasma, read-out: plasma levels

Sequence of human recombinant GCPII (Q04609 whole entry): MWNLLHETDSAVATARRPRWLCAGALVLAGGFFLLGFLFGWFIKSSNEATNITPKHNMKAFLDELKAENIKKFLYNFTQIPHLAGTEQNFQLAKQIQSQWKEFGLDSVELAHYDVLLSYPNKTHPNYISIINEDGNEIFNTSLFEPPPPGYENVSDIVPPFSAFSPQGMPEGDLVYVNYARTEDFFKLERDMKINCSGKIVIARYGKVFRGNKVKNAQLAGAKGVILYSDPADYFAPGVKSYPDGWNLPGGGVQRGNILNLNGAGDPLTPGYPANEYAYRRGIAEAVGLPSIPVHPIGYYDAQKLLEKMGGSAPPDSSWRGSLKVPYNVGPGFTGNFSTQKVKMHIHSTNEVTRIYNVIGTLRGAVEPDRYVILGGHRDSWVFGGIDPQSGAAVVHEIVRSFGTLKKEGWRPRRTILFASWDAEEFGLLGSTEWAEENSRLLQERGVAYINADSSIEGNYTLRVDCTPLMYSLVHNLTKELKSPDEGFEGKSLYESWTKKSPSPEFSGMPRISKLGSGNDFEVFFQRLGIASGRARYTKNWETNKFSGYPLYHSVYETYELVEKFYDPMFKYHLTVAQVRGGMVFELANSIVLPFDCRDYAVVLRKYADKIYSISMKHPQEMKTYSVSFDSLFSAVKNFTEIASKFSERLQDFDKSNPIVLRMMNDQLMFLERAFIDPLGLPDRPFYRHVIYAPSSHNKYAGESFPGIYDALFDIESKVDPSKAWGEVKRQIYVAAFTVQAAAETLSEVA

IC50 (human recombinant GCPII): > 100 µM
SMILES: NCCc1ccc(O)c(O)c1 [Compound 7, Dopamine, reference compound]

IC50 (human recombinant GCPII): 100 µM
SMILES: N[C@@H](Cc1ccc(O)cc1)C(=O)O [Compound 2, Tyr]

IC50 (human recombinant GCPII): 0.2 µM | remaining at 1 h, 10 µM [1]: 100% | remaining at 1 h, 10 µM (in vitro): 82% | Dopamine release in spiked brain homogenate [2]: not observed | brain levels [3]: ~ 1 nmol/g | concentration at 30 min [3, 4]: 84.3 µM | concentration at 1 h ([3]; male, CD-1, mouse, plasma, one hour post dose, read-out: plasma levels): 21.5 µM | bioavailability (in vivo): 47.7% | AUC(0-t) (in vivo; iv, 10 mg/kg): 30.5 µM·h | clearance (in vivo; iv, 10 mg/kg, Cl): 28 mL/min/kg | Cmax (in vivo; iv, 10 mg/kg, Cmax): 61.1 µM | Tmax (in vivo; iv, 10 mg/kg, Tmax): 5 min | clearance (in vivo; iv, 10 mg/kg, clearance (Cl)): 28 mL/min/kg | half-life (in vivo; iv, 10 mg/kg, half-life (t1/2)): 21 min | AUC(0-t) (in vivo; po, 50 mg/kg): 72.7 µM·h | AUCbrain (in vivo; po, 50 mg/kg): 2.42 nmol/g | Cmax (in vivo; po, 50 mg/kg): 1.74 µM | Tmax (in vivo; po, 50 mg/kg): 15 min | Kp (in vivo; po, 50 mg/kg, AUCBrain/Plasma ratio (brain penetration index)): 0.03 | Cmax (in vivo; po, 50 mg/kg, Cmax): 99 µM | Tmax (in vivo; po, 50 mg/kg, Tmax): 30 min | brain GCPII activity, effect in words (GCPII; PO 50 mg/kg + sodium benzoate IP 400 mg/kg, p < 0.001 vs untreated): significant inhibition | brain GCPII activity, effect in words (GCPII; monotherapy PO 50 mg/kg, p < 0.01 vs untreated): significant inhibition | inhibition at 50 mg/kg (GCPII; mouse, po): ~25%
SMILES: N[C@H](Cc1ccc(O)c(O)c1)C(=O)O [Compound 10, D-DOPA]

IC50 (human recombinant GCPII): 0.3 µM | remaining at 1 h, 10 µM [1]: 56% | remaining at 1 h, 10 µM (in vitro): 98% | plasma levels following oral administration ([3]; 30 and 60 min): 6 to 7 µM | brain levels [3]: < 0.01 nmol/g | concentration at 30 min [3, 4]: 6.47 µM
SMILES: O=C(O)/C=C/c1ccc(O)c(O)c1 [Compound 9, Caffeic Acid]

IC50 (human recombinant GCPII): > 100 µM
SMILES: C[C@](N)(Cc1ccc(O)c(O)c1)C(=O)O [Compound 5]

IC50 (human recombinant GCPII): 0.6 µM | remaining at 1 h, 10 µM [1]: 64% | remaining at 0.5 h, 10 µM (in vitro): 0% | Dopamine release in spiked brain homogenate [2]: observed | brain levels [3]: < 0.10 nmol/g | concentration at 30 min [3, 4]: 3.74 µM
SMILES: N[C@@H](Cc1ccc(O)c(O)c1)C(=O)O [Compound 1, L-DOPA, reference compound]

IC50 (human recombinant GCPII): 20 µM
SMILES: CC(=O)N[C@@H](Cc1ccc(O)c(O)c1)C(=O)O [Compound 6]

IC50 (human recombinant GCPII): 4 µM | decrease in inhibitory potency (human recombinant GCPII; versus L-DOPA): 6.7 fold
SMILES: O=C(O)CCc1ccc(O)c(O)c1 [Compound 8]

IC50 (human recombinant GCPII): > 100 µM
SMILES: NC(Cc1ccc(=O)n(O)c1)C(=O)O (stereo not shown) [Compound 4]

— publication PMC9608075 (Pharmaceutics, 2022)
